Data from patent US20030068808A1, “Methods for generating antibiotic resistant microbes and novel antibiotics” (priority 2001, published 2003).

Assays:
Format in all cases: cell-based
[1] = tested on: BL21 cells; assay: Half minimum inhibitory concentrations (MIC) on BL21 cells, titration analysis; conditions: half minimum inhibitory concentration on BL21 cells
[2] = tested on: bacterial cells expressing the vector (pT7Ea); assay: Overnight growth in antibiotic, vector control bacteria; conditions: overnight at 37° C., 10^7 cells in 5 ml LB broth plus antibiotic at 0.5X MIC
Description: (§1) Titration analysis found the following amounts to be effective in inhibiting bacterial growth in the presence of various compounds.
(§2) The next day, cultures were analyzed for cell growth in the presence or absence of antibiotics.

[3] = tested on: bacterial cells expressing pT7PMS134/V5; assay: Overnight growth in antibiotic, MMR defective bacteria expressing PMS2-134; conditions: overnight at 37° C., 10^7 cells in 5 ml LB broth plus antibiotic at 0.5X MIC
Description: as §1, §2

| Compound | 0.5X MIC [1] [µg/mL] | Cell # (pT7Ea) [2] | Cell # (X10^9) (pT7PMS134V5) [3] |
| --- | --- | --- | --- |
| CCn1cc(C(=O)O)c(=O)c2ccc(C)nc21 [Nalidixic Acid] | 7.10 | 0 | 0.97 X10^9 |
| CCn1cc(C(=O)O)c(=O)c2cc(F)c(N3CCNCC3)cc21 [Norfloxacin] | 0.13 | 0 | 1.40 X10^9 |
| CN[C@H](CC(C)C)C(=O)N[C@H]1C(=O)N[C@@H](CC(N)=O)C(=O)N[C@H]2C(=O)N[C@H]3C(=O)N[C@H](C(=O)N[C@H](C(=O)O)c4cc(O)cc(O)c4-c4cc3ccc4O)[C@H](O)c3ccc(c(Cl)c3)Oc3cc2cc(c3O[C@@H]2O[C@H](CO)[C@@H](O)[C@H](O)[C@H]2O[C@H]2C[C@](C)(N)[C@H](O)[C@H](C)O2)Oc2ccc(cc2Cl)[C@H]1O [Vancomycin] | 250.0 | 0 |  |
| CC1COc2c(N3CCN(C)CC3)c(F)cc3c(=O)c(C(=O)O)cn1c23 (stereo not shown) [Ofloxacin] | 0.13 | 0 | 1.20 X10^9 |
| CN(C)[C@@H]1C(O)=C(C(N)=O)C(=O)[C@@]2(O)C(O)=C3C(=O)c4c(O)cccc4[C@@](C)(O)[C@H]3C[C@@H]12 [Tetracycline] |  | 0 | 1.10 X10^9 |
